According to patent publication US8338582B2, “Anti-HIV immunogens and methods for inducing an immune response” (Fundacao de Amparo a Pesquisa do Estado de Sao Paulo, priority 2005, dated 2012):
Where two headings read alike, the source gives them in different places.

Key:
[1] = system: peripheral blood mononuclear cells from HIV-1 seronegative individuals; details: for IFN-γ spots/10^6 PBMC, Average (AV): average of 8 seronegative individuals; for IFN-γ spots/10^6 PBMC, Average (AV) / IFN-γ spots/10^6 PBMC: peptide 5 μM; for IFN-γ spots/10^6 PBMC, AV + 3SD: average plus 3 standard deviations, 8 seronegative individuals
Experimental: (§1) Step d) is achieved by synthesizing the peptides representing the epitopes of the present invention, followed by ELISPOT assay to detect IFN-γ-producing cells. For the purposes of the present invention, the positivity cutoff value used is ≧30 SFC IFN-γ/10^6 PBMC, calculated based on the levels of responses of HIV-1 seronegative patients
(§2) Synthetic peptide stocks were diluted to 25 mg/mL in dimethylsulphoxide, followed by ELISPOT assays for detection of IFN-γ-producing cells in response to the epitopes using peripheral blood mononuclear cells (PBMC) in 34 HIV-1+ patients of several clinical groups, long-term nonprogressors (LTNP), reconsituted, partial controllers, and progressors. Each epitope was tested in a concentration of 5 μM. The cryopreserved cells were maintained in culture for 16 hours, placed on plates in the presence of the epitopes, incubated for a further 18 hours, washed and ELISPOT plates were developed for the identification of spot-forming cells/Interferon-γ-producing cells (IFN-γ SFC), which were then counted in an automated counter (Zeiss KS ELISpot/Axioplan 2).

[2] = system: peripheral blood mononuclear cells (PBMC) in 34 HIV-1+ patients; details: 5 μM, positive ≧30 SFC IFN-γ/10^6 PBMC
Experimental: as §1, §2

| Sequence | IFN-γ spots/10^6 PBMC, Average (AV) [1] | IFN-γ spots/10^6 PBMC, AV + 3SD [1] | IFN-γ spots/10^6 PBMC ([1]; seronegative individual C#01) | IFN-γ spots/10^6 PBMC ([1]; seronegative individual C#02) | IFN-γ spots/10^6 PBMC ([1]; seronegative individual C#03) | IFN-γ spots/10^6 PBMC ([1]; seronegative individual C#04) | IFN-γ spots/10^6 PBMC ([1]; seronegative individual C#05) | IFN-γ spots/10^6 PBMC ([1]; seronegative individual C#06) | IFN-γ spots/10^6 PBMC ([1]; seronegative individual C#07) | IFN-γ spots/10^6 PBMC ([1]; seronegative individual C#08) | percentage of HIV-1+ patients recognizing the individual peptide [2] |
| --- | --- | --- | --- | --- | --- | --- | --- | --- | --- | --- | --- |
| ELLKTVRLIKFLYQSNP [rev 1] | 3 spots/10^6 PBMC | 12.9 spots/10^6 PBMC | 5 spots/10^6 PBMC | 7 spots/10^6 PBMC | 5 spots/10^6 PBMC | 7 spots/10^6 PBMC | 0 spots/10^6 PBMC | 0 spots/10^6 PBMC | 0 spots/10^6 PBMC | 0 spots/10^6 PBMC | – |
| DKELYPLASLRSLFG [gag 4] | 3.7 spots/10^6 PBMC | 17.4 spots/10^6 PBMC | 0 spots/10^6 PBMC | 0 spots/10^6 PBMC | 5 spots/10^6 PBMC | 12 spots/10^6 PBMC | 8 spots/10^6 PBMC | 0 spots/10^6 PBMC | 0 spots/10^6 PBMC | 5 spots/10^6 PBMC | – |
| SPEVIPMFSALSE [gag 2] | 0.9 spots/10^6 PBMC | 6.3 spots/10^6 PBMC | 0 spots/10^6 PBMC | 2 spots/10^6 PBMC | 0 spots/10^6 PBMC | 0 spots/10^6 PBMC | 0 spots/10^6 PBMC | 0 spots/10^6 PBMC | 0 spots/10^6 PBMC | 5 spots/10^6 PBMC | – |
| EAIIRILQQLLFIHF [vpr 2] | 4.6 spots/10^6 PBMC | 24.2 spots/10^6 PBMC | 0 spots/10^6 PBMC | 12 spots/10^6 PBMC | 15 spots/10^6 PBMC | 0 spots/10^6 PBMC | 0 spots/10^6 PBMC | 0 spots/10^6 PBMC | 0 spots/10^6 PBMC | 10 spots/10^6 PBMC | – |
| KRWIILGLNKIVRMYSPTSI [gag 3] | 3.6 spots/10^6 PBMC | 20 spots/10^6 PBMC | 0 spots/10^6 PBMC | 12 spots/10^6 PBMC | 5 spots/10^6 PBMC | 12 spots/10^6 PBMC | 0 spots/10^6 PBMC | 0 spots/10^6 PBMC | 0 spots/10^6 PBMC | 0 spots/10^6 PBMC | – |
| QQLLFIHFRIGCRHSRIG [vpr 3] | 1.9 spots/10^6 PBMC | 12.3 spots/10^6 PBMC | 0 spots/10^6 PBMC | 8 spots/10^6 PBMC | 7 spots/10^6 PBMC | 0 spots/10^6 PBMC | 0 spots/10^6 PBMC | 0 spots/10^6 PBMC | 0 spots/10^6 PBMC | 0 spots/10^6 PBMC | – |
| QRPLVTIKIGGQLKE [pol 1] | 5.1 spots/10^6 PBMC | 26.9 spots/10^6 PBMC | 0 spots/10^6 PBMC | 0 spots/10^6 PBMC | 20 spots/10^6 PBMC | 12 spots/10^6 PBMC | 3 spots/10^6 PBMC | 0 spots/10^6 PBMC | 1 spots/10^6 PBMC | 5 spots/10^6 PBMC | 44% |
| VLAIVALVVATIIAI [vpu 1] | 3.7 spots/10^6 PBMC | 16.2 spots/10^6 PBMC | 0 spots/10^6 PBMC | 0 spots/10^6 PBMC | 7 spots/10^6 PBMC | 7 spots/10^6 PBMC | 0 spots/10^6 PBMC | 0 spots/10^6 PBMC | 6 spots/10^6 PBMC | 10 spots/10^6 PBMC | – |
